# Source: the supplement of paper PMC11061612
# Columns and labels:
# Experiment in all cases: combination Emax (second highest fraction inhibited in the dose matrix, 72 h); higher = more inhibition; extreme values may be limits of the assay
# [1] = test system: MOLT-4 (T-Lymphoblastic Leukemia)
# Outline: (§1)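 Cell lines grown in DMEM/F12 or RPMI with 10% FBS were plated in 1536-well plates and held 24 hours at 37°C, 5% CO2 before 72 hours of exposure to two-drug dose matrices, with DMSO typically at 0.2%. CellTiter-Glo 2.0 luminescence gave viability, which was converted to inhibition. Vehicle wells were set to 0 and blank wells to 1. Combination Emax is the second-highest inhibition in the matrix, and Bliss excess is the observed combination effect minus the expected EA + EB − EA·EB, where EA and EB are the single-agent effects.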
# [2] = test system: NCI-H1092 (Small Cell Lung Carcinoma)
# Outline: as §1
# [3] = test system: ME-180 (Cervical Carcinoma)
# Outline: as §1
# [4] = test system: A4-Fuk (B-Lymphoblastic Leukemia)
# Outline: as §1
# [5] = test system: EJM (Plasma Cell Myeloma)
# Outline: as §1
# [6] = test system: SK-LU-1 (Lung Adenocarcinoma)
# Outline: as §1
# [7] = test system: OACM5-1 (Esophageal Adenocarcinoma)
# Outline: as §1
# [8] = test system: OE33 (Esophageal Adenocarcinoma)
# Outline: as §1
# [9] = test system: KGN (Other Solid Carcinomas)
# Outline: as §1
# [10] = test system: Ca-Ski (Cervical Carcinoma)
# Outline: as §1
# [11] = test system: MDA-MB-453 (Breast Carcinoma)
# Outline: as §1
# [12] = test system: NCI-H522 (Lung Adenocarcinoma)
# Outline: as §1
# [13] = test system: ALL-SIL (T-Lymphoblastic Leukemia)
# Outline: as §1
# [14] = test system: HCC1500 (Breast Carcinoma)
# Outline: as §1
# [15] = test system: ML-2 (Acute Myeloid Leukemia)
# Outline: as §1
# COLO-679 (Melanoma) = test system: COLO-679 (Melanoma)
# Outline: as §1
# Hey (Ovarian Carcinoma) = test system: Hey (Ovarian Carcinoma)
# Outline: as §1
# [16] = test system: KOPN-8 (B-Lymphoblastic Leukemia)
# Outline: as §1
# [17] = test system: NCI-H1993 (Lung Adenocarcinoma)
# Outline: as §1
# [18] = test system: MV-4-11 (Acute Myeloid Leukemia)
# Outline: as §1
SMILES,combination Emax [1],combination Emax [2],combination Emax [3],combination Emax [4],combination Emax [5],combination Emax [6],combination Emax [7],combination Emax [8],combination Emax [9],combination Emax [10],combination Emax [11],combination Emax [12],combination Emax [13],combination Emax [14],combination Emax [15],combination Emax (COLO-679 (Melanoma)),combination Emax (Hey (Ovarian Carcinoma)),combination Emax [16],combination Emax [17],combination Emax [18]
"CN(C)CCCOc1ccc(-c2ccc3ncc4c(c3c2)n(C2CCOCC2)c(=O)n4C)cn1 [AZD0156] + C=CCn1c(=O)c2cnc(Nc3ccc(N4CCN(C)CC4)cc3)nc2n1-c1cccc(C(C)(C)O)n1 [AZD1775] (first compound max 1 µM, partner max 1 µM)",1,0.301,0.423,0.816,0.858,0.384,0.414,0.472,0.806,0.7,0.192,0.225,0.742,0.283,1,0.552,0.495,0.85,0.586,0.924
"CC(=O)c1c(C)c2cnc(Nc3ccc(N4CCNCC4)cn3)nc2n(C2CCCC2)c1=O [Palbociclib] + Cc1c2c(nn1C)CSCc1cc(n(C)n1)CSc1cc(c3ccccc3c1)OCCCc1c(C(=O)O)n(C)c3c-2c(Cl)ccc13 [AZD5991] (first compound max 10 µM, 7x7, partner max 1 µM)",0.9,0.608,0.151,1,0.443,0.297,0.932,0.275,0.644,0.342,0.282,0.57,0.446,0.434,1,0.335,0.431,0.917,0.403,1
"C[C@@H]1COCCN1c1cc(C2([S@](C)(=N)=O)CC2)nc(-c2ccnc3[nH]ccc23)n1 [AZD6738] + O=C(c1cc(Cc2n[nH]c(=O)c3ccccc23)ccc1F)N1CCN(C(=O)C2CC2)CC1 [Olaparib] (first compound max 10 µM, 7x7, partner max 10 µM)",1,0.184,0.425,0.706,0.899,0.473,0.518,0.721,0.828,0.647,0.794,0.23,0.95,0.341,0.955,0.661,0.699,0.876,0.549,0.985
"NC1(C(=O)N[C@@H](CCO)c2ccc(Cl)cc2)CCN(c2ncnc3[nH]ccc23)CC1 [Capivasertib] + COc1nnc2ccc(N3CCC(c4ccc(OCCN5CCN(C)C(=O)[C@H]5C)cc4)CC3)nn12 [AZD5153] (first compound max 10 µM, 7x7, partner max 1 µM)",1,0.364,0.693,0.95,0.658,0.381,0.805,0.319,0.709,0.591,0.93,0.381,0.841,0.264,0.997,0.578,0.556,0.992,0.676,1
"NC1(C(=O)N[C@@H](CCO)c2ccc(Cl)cc2)CCN(c2ncnc3[nH]ccc23)CC1 [Capivasertib] + Cn1cnc2c(F)c(Nc3ccc(Br)cc3Cl)c(C(=O)NOCCO)cc21 [Selumetinib] (first compound max 10 µM, 7x7, partner max 10 µM)",0.758,0.215,0.681,0.905,0.403,0.437,0.7,0.423,0.54,0.597,0.572,0.268,0.513,0.25,0.985,0.786,0.773,0.722,0.839,0.881
"CN(CCO)CC[C@H](CSc1ccccc1)Nc1ccc(S(=O)(=O)NC(=O)c2ccc(N3CCC([C@@H](O)c4ccccc4-c4ccc(Cl)cc4)CC3)cc2)cc1S(=O)(=O)C(F)(F)F [AZD4320] + CN(C)CCCOc1ccc(-c2ccc3ncc4c(c3c2)n(C2CCOCC2)c(=O)n4C)cn1 [AZD0156] (first compound max 1 µM, 7x7, partner max 1 µM)",0.976,0.862,0.246,0.476,0.162,0.322,0.433,0.0749,0.425,0.268,0.175,0.0875,1,0.998,0.963,0.162,0.256,0.898,0.742,1
"Cc1c2c(nn1C)CSCc1cc(n(C)n1)CSc1cc(c3ccccc3c1)OCCCc1c(C(=O)O)n(C)c3c-2c(Cl)ccc13 [AZD5991] + C[C@@H](Nc1cc(F)cc(F)c1)c1cc(C(=O)N(C)C)cc2c(=O)cc(N3CCOCC3)oc12 [AZD8186] (first compound max 1 µM, 7x7, partner max 3 µM)",0.526,0.569,0.217,1,0.929,0.384,0.94,,0.443,0.556,0.355,0.452,0.968,0.426,1,0.332,0.258,0.915,0.455,1
